The values below are quoted from earlier work in patent US20210113536A1, “METHODS AND COMPOSITIONS FOR DETECTING AND TREATING VENOUS THROMBOEMBOLISM” (United States Government As Represented By The Department …, priority 2019, published 2021).

The data set concerns asymptomatic participants. The following applies: 20 mg of rosuvastatin, JUPITER trial.

For `CC(C)c1nc(N(C)S(C)(=O)=O)nc(-c2ccc(F)cc2)c1/C=C/[C@@H](O)C[C@@H](O)CC(=O)O` [rosuvastatin], the “occurrence of symptomatic VTE” value is “reduced occurrence of symptomatic VTE”.
